{"source": "PubChem BioAssay AID1845204", "about": "(Molecular Pharmacology Branch, DTP, NCI, 2023)", "tested_on": "HSSY-II tumor spheroid viability", "experiment": "Anticancer human tumor HSSY-II cell line growth inhibition;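 on all read-outs here: spheroids exposed to compounds for seven days before reading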;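 on viability, T/C: percent of DMSO vehicle control viability so 100% = untreated level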", "details": "spheroids with HUVEC and MSC; for IC50: curve of first compound; for viability, T/C: stronger effect = lower value", "in_short": "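Complex tumor spheroids combined malignant cells with endothelial cells and mesenchymal stem cells. DNA-damaging drugs and DNA repair inhibitors were tested alone and in combination, at half-log dilutions down from clinical Cmax (top 10 microM if Cmax unknown), 0.25% DMSO final.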", "data": [{"smiles": "CC(C)n1c(=O)n(C)c2cnc3cc(F)c(-c4ccc(OCCCN5CCCCC5)nc4)cc3c21", "note": "+ COc1cc2c(cc1O)CCNC21CSC2c3c(OC(C)=O)c(C)c4c(c3C(COC1=O)N1C(O)C3Cc5cc(C)c(OC)c(O)c5C(C21)N3C)OCO4", "values": [{"measurement": "IC50", "setting": "second compound 30 pM", "value": "> 10", "unit": "µM"}, {"measurement": "IC50", "setting": "second compound 94.9 pM", "value": 7.16, "unit": "µM"}, {"measurement": "IC50", "setting": "second compound 0.0003 µM", "value": "< 0.0316", "unit": "µM"}, {"measurement": "IC50", "setting": "second compound 0.000949 µM", "value": "< 0.0316", "unit": "µM"}, {"measurement": "IC50", "setting": "second compound 0.003 µM", "value": "< 0.0316", "unit": "µM"}, {"measurement": "viability, T/C", "setting": "second compound 30 pM, first compound 0.0316 µM", "value": 128, "unit": "%"}, {"measurement": "viability, T/C", "setting": "second compound 30 pM, first compound 0.1 µM", "value": 120, "unit": "%"}, {"measurement": "viability, T/C", "setting": "second compound 30 pM, first compound 0.316 µM", "value": 109, "unit": "%"}, {"measurement": "viability, T/C", "setting": "second compound 30 pM, first compound 1 µM", "value": 114, "unit": "%"}, {"measurement": "viability, T/C", "setting": "second compound 30 pM, first compound 3.16 µM", "value": 91.9, "unit": "%"}, {"measurement": "viability, T/C", "setting": "second compound 30 pM, first compound 10 µM", "value": 71.4, "unit": "%"}, {"measurement": "viability, T/C", "setting": "second compound 94.9 pM, first compound 0.0316 µM", "value": 75.3, "unit": "%"}, {"measurement": "viability, T/C", "setting": "second compound 94.9 pM, first compound 0.1 µM", "value": 73.6, "unit": "%"}, {"measurement": "viability, T/C", "setting": "second compound 94.9 pM, first compound 0.316 µM", "value": 70, "unit": "%"}, {"measurement": "viability, T/C", "setting": "second compound 94.9 pM, first compound 1 µM", "value": 84.1, "unit": "%"}, {"measurement": "viability, T/C", "setting": "second compound 94.9 pM, first compound 3.16 µM", "value": 73.3, "unit": "%"}, {"measurement": "viability, T/C", "setting": "second compound 94.9 pM, first compound 10 µM", "value": 40.2, "unit": "%"}, {"measurement": "viability, T/C", "setting": "second compound 0.0003 µM, first compound 0.0316 µM", "value": 13.2, "unit": "%"}, {"measurement": "viability, T/C", "setting": "second compound 0.0003 µM, first compound 0.1 µM", "value": 13.8, "unit": "%"}, {"measurement": "viability, T/C", "setting": "second compound 0.0003 µM, first compound 0.316 µM", "value": 18, "unit": "%"}, {"measurement": "viability, T/C", "setting": "second compound 0.0003 µM, first compound 1 µM", "value": 17.2, "unit": "%"}, {"measurement": "viability, T/C", "setting": "second compound 0.0003 µM, first compound 3.16 µM", "value": 13.9, "unit": "%"}, {"measurement": "viability, T/C", "setting": "second compound 0.0003 µM, first compound 10 µM", "value": 15.2, "unit": "%"}, {"measurement": "viability, T/C", "setting": "second compound 0.000949 µM, first compound 0.0316 µM", "value": 3.04, "unit": "%"}, {"measurement": "viability, T/C", "setting": "second compound 0.000949 µM, first compound 0.1 µM", "value": 3.45, "unit": "%"}, {"measurement": "viability, T/C", "setting": "second compound 0.000949 µM, first compound 0.316 µM", "value": 3.44, "unit": "%"}, {"measurement": "viability, T/C", "setting": "second compound 0.000949 µM, first compound 1 µM", "value": 5.73, "unit": "%"}, {"measurement": "viability, T/C", "setting": "second compound 0.000949 µM, first compound 3.16 µM", "value": 4.91, "unit": "%"}, {"measurement": "viability, T/C", "setting": "second compound 0.000949 µM, first compound 10 µM", "value": 3.99, "unit": "%"}, {"measurement": "viability, T/C", "setting": "second compound 0.003 µM, first compound 0.0316 µM", "value": 0.18, "unit": "%"}, {"measurement": "viability, T/C", "setting": "second compound 0.003 µM, first compound 0.1 µM", "value": 0.2, "unit": "%"}, {"measurement": "viability, T/C", "setting": "second compound 0.003 µM, first compound 0.316 µM", "value": 0.22, "unit": "%"}, {"measurement": "viability, T/C", "setting": "second compound 0.003 µM, first compound 1 µM", "value": 0.2, "unit": "%"}, {"measurement": "viability, T/C", "setting": "second compound 0.003 µM, first compound 3.16 µM", "value": 0.2, "unit": "%"}, {"measurement": "viability, T/C", "setting": "second compound 0.003 µM, first compound 10 µM", "value": 0.31, "unit": "%"}]}, {"smiles": "[2H]c1nc(C)nc([2H])c1-c1cc(NC[C@@H](C)c2cccc3c(C(=O)NC)ccnc23)ncn1", "note": "+ Cn1nnc2c(C(N)=O)ncn2c1=O", "values": [{"measurement": "IC50", "setting": "second compound 1 µM", "value": "> 10", "unit": "µM"}, {"measurement": "IC50", "setting": "second compound 3.16 µM", "value": "> 10", "unit": "µM"}, {"measurement": "IC50", "setting": "second compound 10 µM", "value": "> 10", "unit": "µM"}, {"measurement": "IC50", "setting": "second compound 31.6 µM", "value": "> 10", "unit": "µM"}, {"measurement": "IC50", "setting": "second compound 100 µM", "value": "> 10", "unit": "µM"}, {"measurement": "viability, T/C", "setting": "second compound 1 µM, first compound 0.0316 µM", "value": 103, "unit": "%"}, {"measurement": "viability, T/C", "setting": "second compound 1 µM, first compound 0.1 µM", "value": 101, "unit": "%"}, {"measurement": "viability, T/C", "setting": "second compound 1 µM, first compound 0.316 µM", "value": 100, "unit": "%"}, {"measurement": "viability, T/C", "setting": "second compound 1 µM, first compound 1 µM", "value": 96.8, "unit": "%"}, {"measurement": "viability, T/C", "setting": "second compound 1 µM, first compound 3.16 µM", "value": 93.8, "unit": "%"}, {"measurement": "viability, T/C", "setting": "second compound 1 µM, first compound 10 µM", "value": 91.7, "unit": "%"}, {"measurement": "viability, T/C", "setting": "second compound 3.16 µM, first compound 0.0316 µM", "value": 104, "unit": "%"}, {"measurement": "viability, T/C", "setting": "second compound 3.16 µM, first compound 0.1 µM", "value": 100, "unit": "%"}, {"measurement": "viability, T/C", "setting": "second compound 3.16 µM, first compound 0.316 µM", "value": 98.5, "unit": "%"}, {"measurement": "viability, T/C", "setting": "second compound 3.16 µM, first compound 1 µM", "value": 107, "unit": "%"}, {"measurement": "viability, T/C", "setting": "second compound 3.16 µM, first compound 3.16 µM", "value": 94.1, "unit": "%"}, {"measurement": "viability, T/C", "setting": "second compound 3.16 µM, first compound 10 µM", "value": 90.8, "unit": "%"}, {"measurement": "viability, T/C", "setting": "second compound 10 µM, first compound 0.0316 µM", "value": 98.2, "unit": "%"}, {"measurement": "viability, T/C", "setting": "second compound 10 µM, first compound 0.1 µM", "value": 103, "unit": "%"}, {"measurement": "viability, T/C", "setting": "second compound 10 µM, first compound 0.316 µM", "value": 101, "unit": "%"}, {"measurement": "viability, T/C", "setting": "second compound 10 µM, first compound 1 µM", "value": 97.5, "unit": "%"}, {"measurement": "viability, T/C", "setting": "second compound 10 µM, first compound 3.16 µM", "value": 95.3, "unit": "%"}, {"measurement": "viability, T/C", "setting": "second compound 10 µM, first compound 10 µM", "value": 86.2, "unit": "%"}, {"measurement": "viability, T/C", "setting": "second compound 31.6 µM, first compound 0.0316 µM", "value": 108, "unit": "%"}, {"measurement": "viability, T/C", "setting": "second compound 31.6 µM, first compound 0.1 µM", "value": 102, "unit": "%"}, {"measurement": "viability, T/C", "setting": "second compound 31.6 µM, first compound 0.316 µM", "value": 106, "unit": "%"}, {"measurement": "viability, T/C", "setting": "second compound 31.6 µM, first compound 1 µM", "value": 102, "unit": "%"}, {"measurement": "viability, T/C", "setting": "second compound 31.6 µM, first compound 3.16 µM", "value": 97.2, "unit": "%"}, {"measurement": "viability, T/C", "setting": "second compound 31.6 µM, first compound 10 µM", "value": 94.4, "unit": "%"}, {"measurement": "viability, T/C", "setting": "second compound 100 µM, first compound 0.0316 µM", "value": 91.1, "unit": "%"}, {"measurement": "viability, T/C", "setting": "second compound 100 µM, first compound 0.1 µM", "value": 94.4, "unit": "%"}, {"measurement": "viability, T/C", "setting": "second compound 100 µM, first compound 0.316 µM", "value": 95.2, "unit": "%"}, {"measurement": "viability, T/C", "setting": "second compound 100 µM, first compound 1 µM", "value": 91.4, "unit": "%"}, {"measurement": "viability, T/C", "setting": "second compound 100 µM, first compound 3.16 µM", "value": 90.9, "unit": "%"}, {"measurement": "viability, T/C", "setting": "second compound 100 µM, first compound 10 µM", "value": 85, "unit": "%"}]}]}
